From US6900315B2, “2-amino-9H-purin-9-yl compounds and methods for inhibiting/treating HIV infections and AIDS related symptoms” (Yale University, priority 2001, dated 2005)
Like-named read-outs stand apart in the source and are kept apart here.

Tests used:
[1] = target: T1, wild type HIV-1 reverse transcriptase (Human immunodeficiency virus type 1 group M subtype B, UniProt P04585); assay: Kinetics of nucleotide incorporation by wild type HIV-1 reverse transcriptase; type: biochemical; parameters: kpol/Kd: unit not given here
T1 construct: a mixture of 100 nM HIV-1 reverse transcriptase and 300 nM primer/template
Description: Continued research on the guanosine prodrug approach for making D4G a viable anti-HIV agent has yielded a number of new findings. In the present example, enzyme kinetics for the incorporation of the active metabolites of guanosine prodrugs with wild type HIV-1 reverse transcriptase was determined. In this experiment, a mixture of 100 nM HIV-1 reverse transcriptase and 300 nM primer/template in which the correct base incorporation is a guanine nucleotide was rapidly mixed with nucleotide in the presence of 50 mM Tris, 50 mM NaCl and 10 mM MgCl2 for a set amount of time and then the reaction was stopped by the addition 300 mM of EDTA.

[2] = target: T2, mitochondrial polymerase gamma (Homo sapiens, UniProt P54098); assay: Nucleotide incorporation by mitochondrial polymerase gamma into an elongating DNA strand; type: biochemical; conditions: for Kd / kpol / kpol/Kd: mitochondrial polymerase gamma, incorporation
T2 sequence (P54098 1-1239): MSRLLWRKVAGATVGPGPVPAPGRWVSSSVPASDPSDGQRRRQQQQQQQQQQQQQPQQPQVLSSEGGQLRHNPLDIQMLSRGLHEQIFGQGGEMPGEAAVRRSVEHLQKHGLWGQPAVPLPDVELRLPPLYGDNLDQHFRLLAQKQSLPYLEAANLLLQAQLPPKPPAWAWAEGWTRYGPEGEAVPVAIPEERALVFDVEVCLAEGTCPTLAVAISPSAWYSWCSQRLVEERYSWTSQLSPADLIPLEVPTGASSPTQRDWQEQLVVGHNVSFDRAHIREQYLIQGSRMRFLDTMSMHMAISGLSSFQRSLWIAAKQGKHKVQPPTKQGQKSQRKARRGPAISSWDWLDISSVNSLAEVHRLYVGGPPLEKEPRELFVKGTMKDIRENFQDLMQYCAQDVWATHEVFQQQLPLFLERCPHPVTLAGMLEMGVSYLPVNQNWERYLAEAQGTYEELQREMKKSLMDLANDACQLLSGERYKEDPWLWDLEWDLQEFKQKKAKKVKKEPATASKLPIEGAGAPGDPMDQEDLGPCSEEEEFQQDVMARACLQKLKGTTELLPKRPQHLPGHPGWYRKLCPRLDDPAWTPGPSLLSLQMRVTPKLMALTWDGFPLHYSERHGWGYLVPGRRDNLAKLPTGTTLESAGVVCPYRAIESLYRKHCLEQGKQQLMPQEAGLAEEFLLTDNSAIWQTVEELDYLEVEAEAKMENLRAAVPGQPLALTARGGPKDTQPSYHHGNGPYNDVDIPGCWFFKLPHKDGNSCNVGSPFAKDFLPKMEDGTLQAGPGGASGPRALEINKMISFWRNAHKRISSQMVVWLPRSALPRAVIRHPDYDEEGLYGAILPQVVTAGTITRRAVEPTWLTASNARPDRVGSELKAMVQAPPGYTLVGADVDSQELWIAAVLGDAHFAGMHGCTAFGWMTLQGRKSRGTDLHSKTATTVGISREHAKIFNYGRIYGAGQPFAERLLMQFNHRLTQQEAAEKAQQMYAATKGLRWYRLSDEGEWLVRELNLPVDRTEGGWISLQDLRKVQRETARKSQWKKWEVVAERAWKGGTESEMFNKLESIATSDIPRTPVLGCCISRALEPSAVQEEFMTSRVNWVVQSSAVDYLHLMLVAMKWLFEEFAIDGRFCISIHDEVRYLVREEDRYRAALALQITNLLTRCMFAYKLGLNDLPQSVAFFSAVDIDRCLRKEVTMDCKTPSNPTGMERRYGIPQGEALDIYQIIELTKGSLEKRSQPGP

[3] = target: T2, mitochondrial polymerase gamma; assay: Exonuclease removal from chain terminated primer template by mitochondrial polymerase gamma; type: biochemical
[4] = target: T1, wild type HIV-1 reverse transcriptase; conditions: from Ray and Anderson or Furman et al., cited from earlier work
[5] = tested on: HIV IIIB; assay: Anti-HIV activity in MT-2 cells infected with HIV IIIB, MTT dye cell viability; type: cell-based; conditions: for anti-HIV activity: summary of Table 1
Description: To assess the ability of the compounds according to the present invention to inhibit viral infection relative to other compounds experiments were performed in the MT-2 cell line, as previously described by Larder, et al., Antimicrobial Agents & Chemotherapy, vol. 34, 436 (1990). […] Cells were infected at an initial multiplicity of infection (MOI) of 0.1 and grown for 5 days. Cell viability was assessed by the use of dye metabolized by viable cells.

[6] = tested on: MT-2; assay: Toxicity, dye based cell growth assay in absence of HIV, MT-2; conditions: Homo sapiens, MT2, 120 h, read-out: IC50 (inhibited 50% of the cell growth); MT-2, HTLV infected T cell line, 5 days
Description: (§1) To determine the toxicity of the compounds to various cell lines (Table 1, below), a similar dye based assay is performed in the absence of HIV. The toxicity of the compounds alone therefore was determined.

[7] = tested on: CEM; assay: Toxicity, dye based cell growth assay, CEM; conditions: Homo sapiens, CCRF-CEM, 120 h, read-out: IC50 (inhibited 50% of the cell growth); CEM, T cell line, 5 days
Description: as §1

[8] = tested on: HEP-G2; assay: Toxicity, dye based cell growth assay, HEP-G2; conditions: Homo sapiens, HepG2, 120 h, read-out: IC50 (inhibited 50% of the cell growth); HEP-G2, hepatoma cell line, 5 days
Description: as §1

[9] = tested on: KB; assay: Toxicity, dye based cell growth assay, KB; conditions: Homo sapiens, 120 h, read-out: IC50 (inhibited 50% of the cell growth), oral carcinoma, 5 days
Description: as §1

[10] = tested on: HeLa; assay: Toxicity, dye based cell growth assay, HeLa; conditions: Homo sapiens, 120 h, read-out: IC50 (inhibited 50% of the cell growth), cervical cancer cell line, 5 days
Description: as §1

[11] = tested on: mitochondrial DNA in CEM cells; assay: Mitochondrial toxicity: ratio of mitochondrial DNA to Alu repeat in CEM cells; type: cell-based; conditions: human, 8 days
Source text: After 8 days of growth the cells were lysed and probed for the amount of mitochondrial DNA and normalized for differences in the amount of total DNA by probing for the Alu repeat. By comparing the amount of mitochondrial DNA to the amount of Alu repeat the % decrease in mitochondrial DNA in the presence of various concentrations of drug can be obtained. All experiments were done in triplicate. Techniques which are presented here have been previously described in Chen and Cheng, J. Biol. Chem., vol. 264, 11934-7 (1989).

[12] = tested on: HIV; assay: Effect of mycophenolic acid on anti-HIV activity of nucleoside analogs in cell culture; type: cell-based
Description: FIG. 2 presents table 6 and indicates the effect that mycophenolic acid has on the anti-HIV activity of the indicated nucleoside analogs. In the experiment depicted in this Figure, 1×10^5 cells/ml were incubated with or without 200 nM mycophenolic acid for 30 minutes and then added to wells containing nucleoside analogs to test for toxicity and anti-HIV activity. The date presented is representative of at least two independent trials.
In cell culture, the mechanism of activation for D4G prodrugs has been investigated with the initial model compound cyclo D4G. […] Experiments with mycophenolic acid, an inhibitor of inosine monophosphate (IMP) dehydrogenase have been used to study the guanine dependence of activation for cyclo D4G. The addition of mycophenolic acid results in an increase in cellular IMP and a decrease in GMP and all other guanine containing nucleosides and nucleotides. […]. The data which is presented is representative of at least two independent trials. Furthermore, cyclo D4G's activity could be rescued by the addition of guanine to the media (data not shown).

[13] = tested on: HIV; assay: Anti-HIV drug combination (synergy, isobologram of FEC50) in cell culture; type: cell-based
Description: Points on this line represent the compounds working independently.
In an attempt to understand how D4G prodrugs of the present invention would interact with other clinically approved compounds, experiments were performed with drug combinations. […] Points on the line represent two compounds working independently. […] See, Bridges, et al., Biochem. Pharmacol., 51, 731 (1996) and Dutschman, et al., Antimicro. Agents Chemother. 42, 1799 (1998).

[14] = target: T2, mitochondrial polymerase gamma; conditions: exonuclease; from Johnson et al.; cited from earlier work
[15] = target: T2, mitochondrial polymerase gamma; conditions: cited from earlier work
[16] = tested on: HIV; conditions: cited from earlier work
[17] = Table 4, primer/template DNA/DNA, RT WT
[18] = Table 4, primer/template DNA/RNA, RT WT
[19] = mitochondrial polymerase gamma, from Johnson et al.

SMILES	Efficiency [1, 17] [s^−1μM^−1]	Kd [1, 17] [µM]	kpol [1, 17] [s⁻¹]	Efficiency [1, 18] [s^−1μM^−1]	Kd [1, 18] [µM]	kpol [1, 18] [s⁻¹]	Kd [2] [µM]	kpol [2] [s⁻¹]	kpol/Kd [2] [M⁻¹ s⁻¹]	kexo [3] [s⁻¹]	anti-HIV activity [5]	IC50 [6] [µM]	IC50 [7] [µM]	IC50 [8] [µM]	IC50 [9] [µM]	IC50 [10] [µM]	% Control (mtDNA/Alu) ([11]; 1 μM) [%]	Ration of mtDNA/Alu ([11]; 1 μM)	% Control (mtDNA/Alu) ([11]; 10 μM) [%]	Ration of mtDNA/Alu ([11]; 10 μM)	further results
Nc1nc2c(ncn2[C@H]2C=C[C@@H](COP(=O)(O)OP(=O)(O)OP(=O)(O)O)O2)c(=O)[nH]1 [D4GTP]	1.1 ± 0.3	11 ± 2	11 ± 1	1.4 ± 0.2	9.5 ± 1.1	13 ± 0.5	0.61 ± 0.13	0.27 ± 0.02	450000 ± 99000	0.00046 ± 0.000021											Kd ([1]; Table 3, substrate DNA/DNA): 11 ± 2 µM; Selectivity = (kpol/Kd)dGTP/(kpol/Kd)analog ([1]; Table 3, substrate DNA/DNA): 1.5; kpol ([1]; Table 3, substrate DNA/DNA): 11 ± 1 s⁻¹; kpol/Kd ([1]; Table 3, substrate DNA/DNA): 1.1 ± 0.26; Kd ([1]; Table 3, substrate DNA/RNA): 9.5 ± 1.1 µM; Selectivity = (kpol/Kd)dGTP/(kpol/Kd)analog ([1]; Table 3, substrate DNA/RNA): 2; kpol ([1]; Table 3, substrate DNA/RNA): 13 ± 0.5 s⁻¹; kpol/Kd ([1]; Table 3, substrate DNA/RNA): 1.4 ± 0.2; Selectivity = efficiency dGTP/efficiency analog [1, 17]: 2; Selectivity = efficiency dGTP/efficiency analog [1, 18]: 2; Toxicity Index ([2]; fold increase in time for mitochondrial replication, 1 = no toxicity): 320
Nc1nc2c(ncn2[C@H]2C[C@H](O)[C@@H](COP(=O)(O)OP(=O)(O)OP(=O)(O)O)O2)c(=O)[nH]1 [DGTP]	1.7 ± 0.3	14 ± 2	24 ± 1	3.1 ± 0.6	11 ± 2	35 ± 2	1.4 ± 0.3	175 ± 10	1.3e+08 ± 3e+07	0.019 ± 0.0019											Kd ([4]; Table 3, substrate DNA/DNA): 14 ± 2 µM; Selectivity = (kpol/Kd)dGTP/(kpol/Kd)analog ([4]; Table 3, substrate DNA/DNA): 1; kpol ([4]; Table 3, substrate DNA/DNA): 24 ± 1 s⁻¹; Kd ([4]; Table 3, substrate DNA/RNA): 11 ± 2 µM; Selectivity = (kpol/Kd)dGTP/(kpol/Kd)analog ([4]; Table 3, substrate DNA/RNA): 1; kpol ([4]; Table 3, substrate DNA/RNA): 35 ± 2 s⁻¹
Nc1nc(NC2CC2)c2ncn([C@H]3C=C[C@@H](CO)O3)c2n1 [Cd4G, 2-Amino-6-cyclopropylamino-9-(2,3-dideoxy-β-D-glycero-pent-2-enofuranosyl)purine]											strong anti-HIV activity	100 ± 22	200 ± 31	> 500	> 500	500 ± 33	99	1.06 ± 0.11	84	0.90 ± 0.06	EC50 ([5]; Human immunodeficiency virus 1, IIIB, MT2, 120 h, read-out: EC50 (concentration necessary to save 50% of the cells)): 8 µM; mitochondrial toxicity [11]: lower mitochondrial toxicity than D4T; % Control (mtDNA/Alu) ([11]; 200 μM): 43%; Ration of mtDNA/Alu ([11]; 200 μM): 0.46 ± 0.06; fold less active (anti-HIV) in the presence of mycophenolic acid ([12]; 200 nM mycophenolic acid, 30 minutes, 1×10^5 cells/ml): 3 fold; anti-HIV activity on addition of guanine to the media ([12]; in the presence of mycophenolic acid, data not shown): rescued; anti-HIV interaction in combination with 3TC ([13]; FIG. 3 and FIG. 4): synergistic; anti-HIV interaction in combination with D4T ([13]; FIG. 4): somewhat synergistic; anti-HIV interaction in combination with AZT ([13]; FIG. 4, D4T with AZT data not shown): synergistic
Cc1cn([C@H]2C=C[C@@H](COP(=O)(O)OP(=O)(O)OP(=O)(O)O)O2)c(=O)[nH]c1=O [D4TTP]																					kexo [14]: 0.0004 s⁻¹; Toxicity Index [15]: 3,120; Discrimination [15, 19]: 7.4; Kd [15, 19]: 0.045 ± 0.0075 µM; kpol [15, 19]: 0.24 ± 0.01 s⁻¹; kpol/Kd [15, 19]: 5.4e+06 ± 930000 M⁻¹ s⁻¹
Nc1nc2c(ncn2[C@H]2C=C[C@@H](CO)C2)c(=O)[nH]1 [carbovir]																					previously reported activity against HIV [16]: significant activity
Nc1nc2c(ncn2[C@H]2C=C[C@@H](CO)O2)c(=O)[nH]1 [d4G, 9-(2,3-Dideoxy-β-D-glycero-pent-2-enofuranosyl)guanine]											complete inactivity	40 ± 9	70 ± 11	280 ± 19	> 500	200 ± 13	105	1.12 ± 0.17	106	1.14 ± 0.07	previously reported activity against HIV [16]: inactive
